{"source": "patent US20080076711A1", "about": "“Therapeutic agents for osteopenia” (Chugai Seiyaku Kabushiki Kaisha, priority 2001, published 2008)", "key": {"[1]": {"tested_on": "OPN knockout (OPN-KO) mice", "experiment": "BFR and MAR in cortical bone (femoral mid-diaphysis) after PTH treatment, OPN-KO mice", "type": "in vivo, mouse", "experimental": "In the case of cortical bone, decalcified horizontal sections (serial sections of 3 μm thickness) were prepared from the femoral mid-diaphysis and analyzed for BFR and MAR in the periosteal and endosteal regions. More specifically, a calcium chelator calcein (4 mg/kg of body weight) was subcutaneously administered 9 days and 2 days before sampling and the interval between two labeled bands was determined under a fluorescence microscope to calculate BFR and MAR.\nBFR denotes bone formation rate per unit trabecular area (μm^3/μm^2/day).\nMAR denotes the rate of increase in the distance between labeled calcified bands (μm/day).\nTo create an animal model in which the in vivo effects of OPN were inhibited, strain 129 female mice at 7 weeks of age were modified into knockout mice deficient in the OPN gene (OPN-KO mice), as described in Rittling et al. J. Bone Miner. Res., 13: 1101-1111, 1998. These mice were singly used for PTH treatment test. They were divided into groups of 6 mice each.\nRecombinant human PTH(1-34) (Bachem, Torrance, Calif.) was dissolved in acidified physiological saline supplemented with 0.1% bovine serum albumin (Sigma Chemical Co.-Aldrich, St. Louis, Mo.). The OPN-KO mice were subcutaneously administered with 80 μg/kg of body weight human PTH(1-34) for 4 weeks on a five-days-a-week basis. Mice in the control group were administered with physiological saline alone."}, "[2]": {"tested_on": "wild-type strain 129 female mice", "experiment": "Determination of cancellous bone mass (BV/TV) after PTH treatment, wild-type mice", "type": "in vivo, mouse", "settings": "WT mice, PTH(+) group, 80 μg/kg s.c., 4 weeks, five days a week", "experimental": "Sagittal sections were prepared from the metaphyseal region of femur and tomographed using an X-ray microtomograph Musashi (Nittetsu-ELEX, Osaka, Japan). A Luzex-F automated Image analysis system (Nireco, Tokyo, Japan) was then used for analysis of the image data from a 1.47 mm^2 square area (0.7 mm×2.1 mm) located 0.2 mm apart from the growth plate of the distal end of femur to obtain BV/TV values. BV/TV (bone volume/total tissue volume) denotes the unit bone mass (%), i.e., the percentage of the total trabecular volume in the total tissue volume. Namely, an increase in BV/TV means an increase in calcified bone. Recombinant human PTH(1-34) (Bachem, Torrance, Calif.) was dissolved in acidified physiological saline supplemented with 0.1% bovine serum albumin (Sigma Chemical Co.-Aldrich, St. Louis, Mo.). The OPN-KO mice were subcutaneously administered with 80 μg/kg of body weight human PTH(1-34) for 4 weeks on a five-days-a-week basis. Mice in the control group were administered with physiological saline alone. The effect of PTH on bone metabolism was also examined in the same manner as shown in Example 1, using wild-type strain 129 female mice (7 weeks of age). These mice were divided into groups of 6 mice each."}, "[3]": {"tested_on": "wild-type strain 129 female mice", "experiment": "Determination of cortical bone thickness and area after PTH treatment, wild-type mice", "type": "in vivo, mouse", "settings": "WT mice, PTH(+) group, 80 μg/kg s.c., 4 weeks", "experimental": "Horizontal sections were prepared from the femoral mid-diaphysis and tomographed using an X-ray microtomograph Musashi (Nittetsu-ELEX, Osaka, Japan). A Luzex-F automated image analysis system (Nireco, Tokyo, Japan) was then used for analysis of the image data to determine the thickness and area of cortical bone. The thickness was evaluated at the mean value averaged over 8 measurements every 45°. Recombinant human PTH(1-34) (Bachem, Torrance, Calif.) was dissolved in acidified physiological saline supplemented with 0.1% bovine serum albumin (Sigma Chemical Co.-Aldrich, St. Louis, Mo.). The OPN-KO mice were subcutaneously administered with 80 μg/kg of body weight human PTH(1-34) for 4 weeks on a five-days-a-week basis. Mice in the control group were administered with physiological saline alone. The effect of PTH on bone metabolism was also examined in the same manner as shown in Example 1, using wild-type strain 129 female mice (7 weeks of age). These mice were divided into groups of 6 mice each."}, "[4]": {"tested_on": "wild-type strain 129 female mice", "experiment": "BFR and MAR in cortical bone (femoral mid-diaphysis) after PTH treatment, wild-type mice", "type": "in vivo, mouse", "settings": "WT mice", "experimental": "In the case of cortical bone, decalcified horizontal sections (serial sections of 3 μm thickness) were prepared from the femoral mid-diaphysis and analyzed for BFR and MAR in the periosteal and endosteal regions. More specifically, a calcium chelator calcein (4 mg/kg of body weight) was subcutaneously administered 9 days and 2 days before sampling and the interval between two labeled bands was determined under a fluorescence microscope to calculate BFR and MAR. BFR denotes bone formation rate per unit trabecular area (μm^3/μm^2/day). MAR denotes the rate of increase in the distance between labeled calcified bands (μm/day). Recombinant human PTH(1-34) (Bachem, Torrance, Calif.) was dissolved in acidified physiological saline supplemented with 0.1% bovine serum albumin (Sigma Chemical Co.-Aldrich, St. Louis, Mo.). The OPN-KO mice were subcutaneously administered with 80 μg/kg of body weight human PTH(1-34) for 4 weeks on a five-days-a-week basis. Mice in the control group were administered with physiological saline alone. The effect of PTH on bone metabolism was also examined in the same manner as shown in Example 1, using wild-type strain 129 female mice (7 weeks of age). These mice were divided into groups of 6 mice each."}, "[5]": {"tested_on": "wild-type strain 129 female mice", "experiment": "BFR and MAR in cancellous bone (distal end of femur) after PTH treatment, wild-type mice", "type": "in vivo, mouse", "settings": "WT mice", "experimental": "BFR denotes bone formation rate per unit trabecular area (μm^3/μm^2/day). MAR denotes the rate of increase in the distance between labeled calcified bands (μm/day). In the case of cancellous bone, decalcified sagittal sections were prepared from the metaphyseal region and analyzed for BFR and MAR in a 1.4 mm^2 square area located 0.2 mm apart from the growth plate of the distal end of femur. Labeling was accomplished by subcutaneous administration of xylenol orange (100 mg/kg of body weight) 4 days before and calcein 2 days before sampling. Recombinant human PTH(1-34) (Bachem, Torrance, Calif.) was dissolved in acidified physiological saline supplemented with 0.1% bovine serum albumin (Sigma Chemical Co.-Aldrich, St. Louis, Mo.). The OPN-KO mice were subcutaneously administered with 80 μg/kg of body weight human PTH(1-34) for 4 weeks on a five-days-a-week basis. Mice in the control group were administered with physiological saline alone. The effect of PTH on bone metabolism was also examined in the same manner as shown in Example 1, using wild-type strain 129 female mice (7 weeks of age). These mice were divided into groups of 6 mice each."}, "[6]": {"tested_on": "postmenopausal patients with osteoporosis", "settings": "100 μg/day once-daily subcutaneous injections for 6 months; cited from earlier work"}, "[7]": {"settings": "PTH(+) group, 80 μg/kg s.c., 4 weeks"}, "[8]": {"settings": "PTH(+) vs PTH(−) group, significant inhibition of bone formation (p<0.05)"}}}
{"substance": "human PTH(1-34)", "values": [{"measurement": "endosteal BFR, cortical bone", "setting": "[1]; [7]", "value": "0.62±0.09", "unit": "μm^3/μm^2/day"}, {"measurement": "endosteal MAR, cortical bone", "setting": "[1]; [7]", "value": "1.33±0.28", "unit": "μm/day"}, {"measurement": "periosteal BFR (bone formation rate), cortical bone", "setting": "[1]; [7]", "value": "2.38±0.18", "unit": "μm^3/μm^2/day"}, {"measurement": "periosteal MAR (mineral apposition rate), cortical bone", "setting": "[1]; [7]", "value": "2.97±0.25", "unit": "μm/day"}, {"measurement": "effect of PTH treatment on endosteal BFR and MAR", "setting": "[1]; PTH(+) vs PTH(−) group", "value": "little effect"}, {"measurement": "fold increase in periosteal BFR by PTH treatment", "setting": "[1]; PTH(+) vs PTH(−) group, p<0.05", "value": "~1.8", "unit": "fold"}, {"measurement": "fold increase in periosteal MAR by PTH treatment", "setting": "[1]; PTH(+) vs PTH(−) group, p<0.05", "value": "~1.2", "unit": "fold"}, {"measurement": "cancellous bone mass BV/TV", "setting": "[2]", "value": "21.17±2.68", "unit": "%"}, {"measurement": "area of cortical bone", "setting": "[3]", "value": "0.69±0.03", "unit": "mm^2"}, {"measurement": "thickness of cortical bone", "setting": "[3]", "value": "0.20±0.01", "unit": "mm"}, {"measurement": "endosteal BFR, cortical bone", "setting": "[4]; [7]", "value": "1.37±0.18", "unit": "μm^3/μm^2/day"}, {"measurement": "endosteal MAR, cortical bone", "setting": "[4]; [7]", "value": "2.44±0.29", "unit": "μm/day"}, {"measurement": "periosteal BFR, cortical bone", "setting": "[4]; [7]", "value": "1.07±0.08", "unit": "μm^3/μ^2/day"}, {"measurement": "periosteal MAR, cortical bone", "setting": "[4]; [7]", "value": "2.05±0.21", "unit": "μm/day"}, {"measurement": "fold increase in endosteal BFR by PTH treatment", "setting": "[4]; PTH(+) vs PTH(−) group, p<0.05", "value": "about 1.8 fold"}, {"measurement": "fold increase in endosteal MAR by PTH treatment", "setting": "[4]; PTH(+) vs PTH(−) group, p<0.05", "value": "~1.5", "unit": "fold"}, {"measurement": "fold increase in periosteal BFR by PTH treatment", "setting": "[4]; [8]", "value": "~0.6", "unit": "fold"}, {"measurement": "fold increase in periosteal MAR by PTH treatment", "setting": "[4]; [8]", "value": "~0.7", "unit": "fold"}, {"measurement": "BFR in cancellous bone", "setting": "[5]; [7]", "value": "1.85±0.08", "unit": "μm^3/μm^2/day"}, {"measurement": "MAR in cancellous bone", "setting": "[5]; [7]", "value": "4.84±0.21", "unit": "μm/day"}, {"measurement": "fold increase in cancellous BFR by PTH treatment", "setting": "[5]; PTH(+) vs PTH(−) group, p<0.05", "value": "about 1.4 fold"}, {"measurement": "fold increase in cancellous MAR by PTH treatment", "setting": "[5]; PTH(+) vs PTH(−) group, p<0.05", "value": "~1.3", "unit": "fold"}, {"measurement": "calcium balance", "setting": "[6]", "value": "restored normal calcium balance"}, {"measurement": "cancellous bone mass", "setting": "[6]", "value": "increased cancellous bone mass"}]}
